Assay results reported in PMC8776995 (Frontiers in Chemistry, 2022).
Several values for one entry are separate records, joined by “and”; a condition that tells them apart may be missing. Identical values can stand only once. Each block holds one compound with its values, some of them ahead of it.

Experiments:
wild-type EGFR = wild-type EGFR (Homo sapiens, UniProt P00533); assay: EGFR kinase assay (ELISA); conditions: for IC50: IC50 (μM) EGFR, ELISA, 3 μmol/L ATP; for A450: raw ELISA absorbance
H460 cells = assay: CCK-8 antiproliferation assay, H460; conditions: for Inhibitory efficacy: H460 cells; for Inhibitory efficacy / inhibition at 4 µM / inhibition at 8 µM / inhibition at 16 µM: given as fraction, Repeat 1-3; for IC50 / inhibition at 4 µM / inhibition at 8 µM / inhibition at 16 µM: Homo sapiens; for IC50: NCI-H460, 48 h, read-out: IC50 (μM) H460, CCK-8, 48 h, average ± SD of three independent experiments; for inhibition at 4 µM / inhibition at 8 µM / inhibition at 16 µM: NCI-H460, read-out: Inhibitory efficacy, H460 cells
A549 cells = assay: CCK-8 antiproliferation assay, A549; conditions: for Inhibitory efficacy: A549 cells; for Inhibitory efficacy / inhibition at 1 µM / inhibition at 2 µM / inhibition at 4 µM / inhibition at 8 µM / inhibition at 16 µM: given as fraction, Repeat 1-3; for IC50 / inhibition at 1 µM / inhibition at 2 µM / inhibition at 4 µM / inhibition at 8 µM / inhibition at 16 µM: Homo sapiens; for IC50: A549, 48 h, read-out: IC50 (μM) A549, CCK-8, 48 h, average ± SD of three independent experiments; for inhibition at 1 µM / inhibition at 2 µM / inhibition at 4 µM / inhibition at 8 µM / inhibition at 16 µM: A549, read-out: Inhibitory efficacy, A549 cells
PC-9 cells = assay: CCK-8 antiproliferation assay, PC-9; conditions: for IC50: PC-9, 48 h, read-out: IC50 (μM) PC-9; for inhibition at 8 µM: PC-9, read-out: Inhibitory efficacy, PC-9, 8uM, single repeats (Repeat 1-3), given as fraction; for inhibition at 16 µM: PC-9, read-out: Inhibitory efficacy, PC-9, 16uM, single repeats (Repeat 1-3), given as fraction; for Inhibitory efficacy: single repeats (Repeat 1-3), given as fraction
Experimental: The compounds were dissolved in DMSO to make a 20 μM stock solution and diluted to the concentration of working solutions with complete growth medium before administration.
Cells were seeded in 96-well plates: 3,000–5,000 cells/well in 100 ul. One day after seeding, the test compounds at concentration between 1.0 and 16.0 μ M or 0.1% DMSO (as control) were added to cells in triplicate. 48 h later, CCK-8 was added and incubated the plate for 1–4 h in the incubator. The absorbance at 450 nm were measured using a microplate reader (Bio-Tek).

H1975 cells = assay: CCK-8 antiproliferation assay, H1975; conditions: for Inhibitory efficacy: H1975 cells; for IC50: NCI-H1975, 48 h, read-out: IC50 (μM) H1975, CCK-8, 48 h, average ± SD of three independent experiments
[1] = concentration 0.03 nM, one value per replicate column, 3e-05 µM
[2] = concentration 0.3 nM, one value per replicate column, 0.0003 µM
[3] = concentration 3 nM, one value per replicate column, 0.003 µM
[4] = concentration 30 nM, one value per replicate column, 0.03 µM
[5] = concentration 300 nM, one value per replicate column, 0.3 µM
[6] = concentration 3000 nM, one value per replicate column
[7] = concentration 3000 nM, one value per replicate column, 3 µM
[8] = 8uM, given as fraction, Repeat 1-3
[9] = 16uM, given as fraction, Repeat 1-3
[10] = Homo sapiens, NCI-H1975, read-out: Inhibitory efficacy, H1975 cells, 8uM, given as fraction, Repeat 1-3
[11] = Homo sapiens, NCI-H1975, read-out: Inhibitory efficacy, H1975 cells, 16uM, given as fraction, Repeat 1-3

Sequence of wild-type EGFR (P00533 25-1210): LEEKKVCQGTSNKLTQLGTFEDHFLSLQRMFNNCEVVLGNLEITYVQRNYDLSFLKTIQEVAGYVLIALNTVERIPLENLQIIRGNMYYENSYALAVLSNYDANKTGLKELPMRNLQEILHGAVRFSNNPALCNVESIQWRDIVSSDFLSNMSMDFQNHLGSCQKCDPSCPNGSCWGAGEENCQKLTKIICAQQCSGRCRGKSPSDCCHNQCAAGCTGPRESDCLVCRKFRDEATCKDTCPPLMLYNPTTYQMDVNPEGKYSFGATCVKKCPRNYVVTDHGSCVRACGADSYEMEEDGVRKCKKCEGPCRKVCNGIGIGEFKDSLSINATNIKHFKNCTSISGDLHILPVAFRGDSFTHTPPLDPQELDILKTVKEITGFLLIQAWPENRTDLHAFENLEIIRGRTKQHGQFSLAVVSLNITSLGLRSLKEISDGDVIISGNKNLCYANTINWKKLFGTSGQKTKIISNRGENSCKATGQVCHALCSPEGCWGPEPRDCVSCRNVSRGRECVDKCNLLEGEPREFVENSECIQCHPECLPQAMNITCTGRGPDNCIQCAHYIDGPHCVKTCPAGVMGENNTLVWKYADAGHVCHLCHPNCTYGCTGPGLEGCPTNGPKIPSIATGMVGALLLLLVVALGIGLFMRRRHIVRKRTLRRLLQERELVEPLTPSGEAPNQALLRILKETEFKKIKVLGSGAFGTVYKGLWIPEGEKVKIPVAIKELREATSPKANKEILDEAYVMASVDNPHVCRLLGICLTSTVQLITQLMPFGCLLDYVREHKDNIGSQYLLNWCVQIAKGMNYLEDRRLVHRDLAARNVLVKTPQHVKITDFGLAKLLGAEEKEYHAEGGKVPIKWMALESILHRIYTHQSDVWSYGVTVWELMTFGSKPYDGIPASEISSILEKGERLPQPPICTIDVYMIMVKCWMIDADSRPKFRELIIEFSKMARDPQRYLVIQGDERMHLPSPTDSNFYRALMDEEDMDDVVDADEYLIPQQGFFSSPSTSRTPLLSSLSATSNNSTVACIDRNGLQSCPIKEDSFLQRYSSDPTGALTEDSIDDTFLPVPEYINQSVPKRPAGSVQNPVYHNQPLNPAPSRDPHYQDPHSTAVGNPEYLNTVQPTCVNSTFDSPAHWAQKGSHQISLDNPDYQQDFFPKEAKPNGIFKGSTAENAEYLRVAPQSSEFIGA

melting point: 98 to 101 °C
IC50 (wild-type EGFR): 4.74 µM
inhibition at 100 fM (wild-type EGFR; concentration 0.0001 nM (reference for normalisation), one value per replicate column): 0%
Inhibition (wild-type EGFR; [1]): 3.252
Inhibition (wild-type EGFR; [2]): 1.084 and 9.485
Inhibition (wild-type EGFR; [3]): 4.065 and 14.0921
Inhibition (wild-type EGFR; [4]): 5.691 and 21.1382
Inhibition (wild-type EGFR; [5]): 10.0271 and 28.9973
inhibition at 3 µM (wild-type EGFR; [6]): 30.9%
Inhibition (wild-type EGFR; [7]): 29.5393
A450 (wild-type EGFR; concentration 0.0001 nM): 0.702 and 0.668
A450 (wild-type EGFR; concentration 0.03 nM): 0.702 and 0.656
A450 (wild-type EGFR; concentration 0.3 nM): 0.698 and 0.633
A450 (wild-type EGFR; concentration 3 nM): 0.687 and 0.616
A450 (wild-type EGFR; concentration 30 nM): 0.681 and 0.59
A450 (wild-type EGFR; concentration 300 nM): 0.665 and 0.561
A450 (wild-type EGFR; concentration 3000 nM): 0.588 and 0.559
A450 (wild-type EGFR; concentration 30000 nM): 0.333 and 0.299
IC50 (H460 cells): 11.9 ± 3.63 µM
IC50 (A549 cells): 5.95 ± 1.47 µM
IC50 (PC-9 cells; Homo sapiens): 22.6 ± 1.16 µM
IC50 (H1975 cells; Homo sapiens): > 100 µM
Structure (SMILES): COCCOc1cc2ncnc(Nc3cccc(-c4cn(-c5cccc([N+](=O)[O-])c5)nn4)c3)c2cc1OCCOC [e13, [6,7-Bis-(2-methoxy-ethoxy)-quinazolin-4-yl]-{3-[1-(3-nitro-phenyl)-1H-[1,2,3]triazol-4-yl]-phenyl}-amine]
Inhibitory efficacy (H460 cells; 4uM): 0.3261 and 0.3299
Inhibitory efficacy (H460 cells; 8uM): 0.4209 and 0.401
Inhibitory efficacy (H460 cells; 16uM): 0.4769 and 0.494
inhibition at 4 µM (H460 cells; 4uM): 42.4%
inhibition at 8 µM (H460 cells; 8uM): 54.8%
inhibition at 16 µM (H460 cells; 16uM): 56.2%
Inhibitory efficacy (A549 cells; 1uM): 0.1588 and 0.1553
Inhibitory efficacy (A549 cells; 2uM): 0.352 and 0.366
Inhibitory efficacy (A549 cells; 4uM): 0.5268 and 0.5198
Inhibitory efficacy (A549 cells; 8uM): 0.5749 and 0.6133
Inhibitory efficacy (A549 cells; 16uM): 0.6238 and 0.6256
inhibition at 1 µM (A549 cells; 1uM): 8.71%
inhibition at 2 µM (A549 cells; 2uM): 36.9%
inhibition at 4 µM (A549 cells; 4uM): 44.6%
inhibition at 8 µM (A549 cells; 8uM): 51.1%
inhibition at 16 µM (A549 cells; 16uM): 56.8%
inhibition at 8 µM (PC-9 cells; Homo sapiens): 12.1%
inhibition at 16 µM (PC-9 cells; Homo sapiens): 28.6%
Inhibitory efficacy (PC-9 cells; PC-9, 8uM, 8 µM): 0.1077 and 0.1459
Inhibitory efficacy (PC-9 cells; PC-9, 16uM, 16 µM): 0.2884 and 0.3336
Inhibitory efficacy (H1975 cells; 1uM, given as fraction, Repeat 1-3): 0.09975 and 0.197
Inhibitory efficacy (H1975 cells; 2uM, given as fraction, Repeat 1-3): 0.1652 and 0.1521
Inhibitory efficacy (H1975 cells; 4uM, given as fraction, Repeat 1-3): 0.1521 and 0.1128
Inhibitory efficacy (H1975 cells; [8]): 0.1633 and 0.2344
Inhibitory efficacy (H1975 cells; [9]): 0.1933 and 0.2774
inhibition at 1 µM (H1975 cells; Homo sapiens, NCI-H1975, read-out: Inhibitory efficacy, H1975 cells, 1uM, given as fraction, Repeat 1-3): 14.3%
inhibition at 2 µM (H1975 cells; Homo sapiens, NCI-H1975, read-out: Inhibitory efficacy, H1975 cells, 2uM, given as fraction, Repeat 1-3): 25.5%
inhibition at 4 µM (H1975 cells; Homo sapiens, NCI-H1975, read-out: Inhibitory efficacy, H1975 cells, 4uM, given as fraction, Repeat 1-3): 15%
inhibition at 8 µM (H1975 cells; [10]): 24.2%
inhibition at 16 µM (H1975 cells; [11]): 21%

melting point: 113 to 116 °C
IC50 (wild-type EGFR): 32.5 µM
Inhibition (wild-type EGFR; [1]): 19.0252 and 4.409
Inhibition (wild-type EGFR; [2]): 9.134
inhibition at 0.003 µM (wild-type EGFR; concentration 3 nM, one value per replicate column): 19.8%
Inhibition (wild-type EGFR; [3]): 15.5906
inhibition at 0.03 µM (wild-type EGFR; concentration 30 nM, one value per replicate column): 23.4%
Inhibition (wild-type EGFR; [4]): 15.748
inhibition at 0.3 µM (wild-type EGFR; concentration 300 nM, one value per replicate column): 27%
Inhibition (wild-type EGFR; [5]): 20.1575
inhibition at 3 µM (wild-type EGFR; [6]): 29.6%
Inhibition (wild-type EGFR; [7]): 27.7165
inhibition at 30 µM (wild-type EGFR; concentration 30000 nM, one value per replicate column): 60.1%
Inhibition (wild-type EGFR; concentration 30000 nM, one value per replicate column, 30 µM): 60
A450 (wild-type EGFR; concentration 0.0001 nM): 0.901 and 0.865
A450 (wild-type EGFR; concentration 0.03 nM): 0.78 and 0.837
A450 (wild-type EGFR; concentration 0.3 nM): 0.775 and 0.807
A450 (wild-type EGFR; concentration 3 nM): 0.775 and 0.766
A450 (wild-type EGFR; concentration 30 nM): 0.752 and 0.765
A450 (wild-type EGFR; concentration 300 nM): 0.729 and 0.737
A450 (wild-type EGFR; concentration 3000 nM): 0.713 and 0.689
A450 (wild-type EGFR; concentration 30000 nM): 0.519 and 0.484
IC50 (H460 cells): 10.9 ± 0.39 µM
IC50 (A549 cells): 5.75 ± 0.48 µM
IC50 (PC-9 cells; Homo sapiens): 7.71 ± 1.15 µM
IC50 (H1975 cells; Homo sapiens): 15.3 ± 1.55 µM
Structure (SMILES): COCCOc1cc2ncnc(Nc3cccc(-c4cn(-c5ccccc5C(F)(F)F)nn4)c3)c2cc1OCCOC [e16, [6,7-Bis-(2-methoxy-ethoxy)-quinazolin-4-yl]-{3-[1-(2-trifluoromethyl-phenyl)-1H-[1,2,3]triazol-4-yl]-phenyl}-amine]
Inhibitory efficacy (H460 cells; 4uM): 0.2156 and 0.191
Inhibitory efficacy (H460 cells; 8uM): 0.4491 and 0.447
Inhibitory efficacy (H460 cells; 16uM): 0.6066 and 0.6034
inhibition at 4 µM (H460 cells; 4uM): 21.3%
inhibition at 8 µM (H460 cells; 8uM): 49.5%
inhibition at 16 µM (H460 cells; 16uM): 57.3%
Inhibitory efficacy (A549 cells; 1uM): 0.2305 and 0.3107
Inhibitory efficacy (A549 cells; 2uM): 0.2917 and 0.3288
Inhibitory efficacy (A549 cells; 4uM): 0.4966 and 0.48
Inhibitory efficacy (A549 cells; 8uM): 0.5015 and 0.5395
Inhibitory efficacy (A549 cells; 16uM): 0.6478 and 0.6577
inhibition at 1 µM (A549 cells; 1uM): 15.9%
inhibition at 2 µM (A549 cells; 2uM): 32.3%
inhibition at 4 µM (A549 cells; 4uM): 54.2%
inhibition at 8 µM (A549 cells; 8uM): 54.2%
inhibition at 16 µM (A549 cells; 16uM): 64%
inhibition at 4 µM (PC-9 cells; Homo sapiens, PC-9, read-out: Inhibitory efficacy, PC-9, 4uM, single repeats (Repeat 1-3), given as fraction): 49.1%
inhibition at 8 µM (PC-9 cells; Homo sapiens): 56.9%
inhibition at 16 µM (PC-9 cells; Homo sapiens): 60.8%
Inhibitory efficacy (PC-9 cells; PC-9, 4uM, 4 µM): 0.4427 and 0.4497
Inhibitory efficacy (PC-9 cells; PC-9, 8uM, 8 µM): 0.7173 and 0.5415
Inhibitory efficacy (PC-9 cells; PC-9, 16uM, 16 µM): 0.5494 and 0.5275
Inhibitory efficacy (H1975 cells; [8]): 0.3646 and 0.348
Inhibitory efficacy (H1975 cells; [9]): 0.506 and 0.5045
inhibition at 8 µM (H1975 cells; [10]): 44%
inhibition at 16 µM (H1975 cells; [11]): 48%
